How the values were obtained:
in vitro [1] = conditions: human, liver microsomes
Description: Metabolic stability in human liver microsomes assessed as half life at 1 uM preincubated with compound for 10 mins followed by NADPH addition and measured upto 60 mins by LC-MS/MS analysis

in vitro [2] = conditions: mouse, liver microsomes
Description: Metabolic stability in mouse liver microsomes assessed as half life at 1 uM preincubated with compound for 10 mins followed by NADPH addition and measured upto 60 mins by LC-MS/MS analysis

in vitro [3] = conditions: human, liver microsomes; remark: listed apart in the source
Description: Metabolic stability in human liver microsomes assessed as metabolic bioavailability at 1 uM preincubated with compound for 10 mins followed by NADPH addition and measured upto 60 mins by LC-MS/MS analysis

in vitro [4] = conditions: mouse, liver microsomes; remark: listed apart in the source
Description: Metabolic stability in mouse liver microsomes assessed as metabolic bioavailability at 1 uM preincubated with compound for 10 mins followed by NADPH addition and measured upto 60 mins by LC-MS/MS analysis

[5] = target: Fatty acid-binding protein, heart (Homo sapiens, UniProt P05413)
Description: Displacement of 1,8-ANS from N-terminal 6His-tagged full length FABP3 (unknown origin) expressed in Escherichia coli ER2566 assessed as inhibition constant preincubated with compound for 10 mins followed by 1,8-ANS addition and measured after 3 mins by fluorescence based analysis

[6] = target: Fatty acid-binding protein, adipocyte (Homo sapiens, UniProt P15090)
Description: Displacement of 1,8-ANS from N-terminal 6His-tagged full length FABP4 (unknown origin) expressed in Escherichia coli ER2566 assessed as inhibition constant preincubated with compound for 10 mins followed by 1,8-ANS addition and measured after 3 mins by fluorescence based analysis

FABP3 versus FABP4 = assay: in vitro; conditions: probe 1,8-ANS
Description: Selectivity index, ratio of Ki for displacement of 1,8-ANS from N-terminal 6His-tagged full length FABP3 (unknown origin) expressed in Escherichia coli ER2566 to Ki for displacement of 1,8-ANS from N-terminal 6His-tagged full length FABP4 (unknown origin) expressed in Escherichia coli ER2566

Chain of Fatty acid-binding protein, heart (P05413 whole entry): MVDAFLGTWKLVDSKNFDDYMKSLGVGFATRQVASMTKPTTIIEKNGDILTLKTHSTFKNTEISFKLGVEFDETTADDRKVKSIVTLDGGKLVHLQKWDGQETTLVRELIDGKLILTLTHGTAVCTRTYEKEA
Chain of Fatty acid-binding protein, adipocyte (P15090 whole entry): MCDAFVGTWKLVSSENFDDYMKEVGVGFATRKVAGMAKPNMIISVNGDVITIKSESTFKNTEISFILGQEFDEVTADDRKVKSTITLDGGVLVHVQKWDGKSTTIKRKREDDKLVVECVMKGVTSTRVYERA

| Ki [5] [µM] | Structure (SMILES) | further results |
| --- | --- | --- |
| – | O=C(O)c1ccccc1Nc1cccc(Cl)c1-c1ccccc1 | half-life at 1 h, 1 µM (in vitro [1]): 33.5 min; half-life at 1 h, 1 µM (in vitro [2]): 31.4 min; Fh at 1 h, 1 µM (in vitro [3]): 24%; Fh at 1 h, 1 µM (in vitro [4]): 39.9% |
| 15 | Cc1cccc(Nc2cccc(Cl)c2-c2ccccc2)c1C(=O)O | – |
| 7.46 | Cc1ccc(Nc2cccc(Cl)c2-c2ccccc2)c(C(=O)O)c1 | – |
| 5.18 | O=C(O)c1c(Cl)cccc1Nc1cccc(Cl)c1-c1ccccc1 | – |
| 0.37 | O=C(O)c1cc(F)ccc1Nc1cccc(Cl)c1-c1ccccc1 | – |
| 2.19 | COc1ccc(Nc2cccc(Cl)c2-c2ccccc2)c(C(=O)O)c1 | Ki [6]: 0.359 µM; selectivity ratio (FABP3 versus FABP4): 6 |
| 1.29 | O=C(O)c1cc(Cl)ccc1Nc1cccc(Cl)c1-c1ccccc1 | – |
| 15.4 | Cc1cccc(Nc2cccc(Cl)c2-c2ccc3c(c2)CCO3)c1C(=O)O | – |
| 4 | Cc1c(F)ccc(Nc2cccc(Cl)c2-c2ccccc2)c1C(=O)O | – |
| > 5 | COc1cccc(Nc2cccc(Cl)c2-c2ccccc2)c1C(=O)O | – |
| 7.51 | Cc1c(F)ccc(Nc2cccc(Cl)c2-c2ccc3c(c2)CCO3)c1C(=O)O | – |
